Values quoted from earlier work, collected in article PMC13468302, “African Polyherbal Formulations for Type 2 Diabetes: A Systematic Review and Meta-Analysis of Efficacy, Mechanisms, and Therapeutic Potential” (Plants, 2026).

Legend:
[1] = test system: alloxan-induced diabetic Wistar rats; conditions: combination at 400 mg/kg; 21 days; ref [49]
[2] = test system: HFD + STZ (45 mg/kg)-induced diabetic Sprague Dawley rats; conditions: UL 100 mg/kg, metformin 50 mg/kg, UL+Met 100/50 mg/kg, insulin 2U; 28 days; ref [44]
[3] = test system: alloxan-induced diabetic Wistar rats; conditions: 300 mg/kg each orally, 21 days; ref [53]

Row | Compound | serum glucose reduction [1] | fasting glucose change [2] | glucose reduction [3]
1 | COc1ccc(Cl)cc1C(=O)NCCc1ccc(S(=O)(=O)NC(=O)NC2CCCCC2)cc1 [glibenclamide] | 56.5% | – | –
2 | CN(C)C(=N)N=C(N)N [metformin] | – | −15.34% | –
3 | insulin | – | −35.65% | 69.1%
